System: pointes ponto-géniculo-occipitales (P.G.O.)
Assay: Reserpine-induced ponto-geniculo-occipital (PGO) spikes in the curarized cat
Assay type: in vivo, chat
Details: Felis catus, iv, 0.5 h; dose reducing number of PGO spikes by 50%; cat given réserpine 0,75 mg/kg i.p.; increasing i.v. doses every 30 min, 4H30 after réserpine; read-out: P G O DE 50
Description: Par ailleurs in a étudié l'action des drogues sur les pointes pontc-géniculo-occipitales lors du syndrome réser- pinique chez le chat curarisé, afin de mettre en évidence les propriétés antidépressives des composés.
Che= le chat, on enregistre une activité spécifique au niveau du pont, du noyau genouillé latéral et du cortex occipital qui fut appelée pointes ponto-géniculo-occipitales (P.G.O.).
Cette activité spontanée, (pointes P.G.O.), apparaissant lors du =ycle veille-sommeil, peut être induite par la réserpiné, agent pharmacologique diminuant le taux des monoamines cérébrales.
Cette activité électroencéphalographique, modulée par des mécanismes neuronaux sous le contrôle de neurotransmetteurs sy=aptiques, constitue donc un test pharmacologique pour l'étude de l'action centrale des drogues.
Toutes les expériences sont réalisées de manière aiguë sur des chats des deux sexes de 2 à 3 kg.
Avant le débtt de la préparation chirurgicale effectuée scis narcose à l'éther, l'animal reçoit une injection in- trapéritonéale de 0,75 mg/kg i.p. de réserpine.
Le chat est intubé pour permettre une ventilation artificielle.
Un anesthésique local (xylocalne à 2%) est injecté au niveau des points de pression et des incisions.
Des canules sont placées au niveau de la veine fémorale, pour l'injection des produits et l'infusion d'un agent curarisant, la gallamine triethiodide (Flaxédil^R), et de l'artère fémorale pour l'enregistrement de la pression artérielle.
Des électrodes monopolaires sont vissées α- niveau cortical et des électrodes bipolaires coaxiales sont placées sté- réotaxiquement au niveau des noyaux genouillés latéraux.
L'animal curarisé et ventilé artificiellement est maintenu à température constante tout au long de l'expérience.
L'électroencéphalogramme, l'électrocardiogramme et la pression artérielle sont enregistrés à l'aide d'un polygraphe : Grass modèle 79 D.
Des doses croissantes (0,1; 0,3; 1; 3; 10 et 30 mg/kg) des produits à étudier sont injectées par voie intraveineuse toutes les 30 minutes, 4H30 après l'administration de la réserpine.
Le nombre des pointes P.G.O. est comptabilisé automatiquement par périodes de 10 minutes et exprimé en pourcentage par périodes de 30 minutes en prenant la valeur obtenue lors des 30 minutes de contrôle comme référence (100%).
La dose efficace réduisant de 50% (DE 50) le nombre des pointes P.G.O. est calculée à l'aide d'une courbe de regression semi-logarithmique.

Cc1ccc(OCC2=CSC3=NCCN23)cc1 [compound 12]
ED50: 0.8 mg/kg

Cc1ccccc1OCC1=CSC2=NCCN12 [compound 10, Chlorhydratede (méthyl-2 phénoxy-méthyl)-3 dihydro-5,6 imidazo-[2,1-b] thiazole]
ED50: 0.3 mg/kg

C1=C(COc2ccccc2-c2ccccc2)N2CCN=C2S1 [compound 31]
ED50: 0.24 mg/kg

COc1ccc(OCC2=CSC3=NCCN23)cc1 [compound 6]
ED50: 1 mg/kg

Clc1ccccc1OCC1=CSC2=NCCN12 [compound 11]
ED50: 0.24 mg/kg

COc1ccccc1OCC1=CSC2=NCCN12 [compound 3]
ED50: 0.4 mg/kg

C1=C(COc2ccccc2)N2CCN=C2S1 [compound 5, Chlorhydrate du phénoxyméthyl-3 dihydro-5,6 imidazo [2,1-b] thiazole]
ED50: 1.2 mg/kg

Clc1cccc(OCC2=CSC3=NCCN23)c1 [compound 9]
ED50: 1 mg/kg

CCOc1ccccc1OCC1=CSC2=NCCN12 [compound 24]
ED50: 0.5 mg/kg

Brc1ccccc1OCC1=CSC2=NCCN12 [compound 18]
ED50: 0.14 mg/kg

C1=C(CSc2ccccc2)N2CCN=C2S1 [compound 1, Chlorhydratede phénylthiométhyl-3 dihydro-5,6 imidazo [2,1 - b] thiazole]
ED50: 0.4 mg/kg

FC(F)(F)c1ccccc1OCC1=CSC2=NCCN12 [compound 21]
ED50: 0.2 mg/kg

Source: patent EP0002400A1, “Thiazole derivatives, their preparation, intermediates and their use in therapeutics” (SYNTHELABO, priority 1977, dated 1979)
